Measurements as given in patent US20210221866A1, “PROTEASE-RESISTANT LIPIDATED GLP-1 ANALOGS” (MEDIMMUNE LIMITED, priority 2015, published 2021).
Like-named read-outs stand apart in the source and are kept apart here. Numbered stars: 1 amine (or outer) side, 2 acyl side, 3 side chain; on linkers, the order of the positions; unused ones are H or OH. Square brackets hold non-standard residues; d marks the D form. Side chains are listed from the residue outwards. Peptide text beside a SMILES is read from it. * marks the point of attachment. C18 diacid = O=C(O)CCCCCCCCCCCCCCCCC(=O)*; γGlu = O=C(O)[C@H](CCC(=O)[*:2])N[*:1]; Palmitoyl = CCCCCCCCCCCCCCCC(=O)*; αMeF = C[C@](N)(Cc1ccccc1)C(=O)O; αMeK = C[C@](N)(CCCCN)C(=O)O; αMeS = C[C@](N)(CO)C(=O)O; AEEA = NCCOCCOCC(=O)O; Aib = CC(C)(N)C(=O)O

Biological target: T1, human GLP-1 receptor (GLP-1R) (Homo sapiens, UniProt P43220)
T1 construct: expressed in transfected cells; host or cells: HEK293 cells or CHO cells
T1 sequence (P43220 24-463): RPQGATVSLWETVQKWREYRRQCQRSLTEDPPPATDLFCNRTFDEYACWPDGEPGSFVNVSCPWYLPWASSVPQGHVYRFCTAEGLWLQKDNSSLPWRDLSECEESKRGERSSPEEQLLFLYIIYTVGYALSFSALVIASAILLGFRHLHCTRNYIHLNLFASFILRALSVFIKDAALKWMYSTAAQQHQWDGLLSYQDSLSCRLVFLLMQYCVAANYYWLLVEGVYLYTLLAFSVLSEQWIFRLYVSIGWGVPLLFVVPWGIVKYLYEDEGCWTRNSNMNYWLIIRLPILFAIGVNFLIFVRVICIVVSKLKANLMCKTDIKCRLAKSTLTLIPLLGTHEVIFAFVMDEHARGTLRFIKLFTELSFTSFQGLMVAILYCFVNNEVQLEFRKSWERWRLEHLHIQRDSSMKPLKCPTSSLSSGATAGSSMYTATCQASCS
Assay: cAMP assay, human GLP-1R cells
Type: cell-based
Conditions: cAMP activity
Experimental: Sample dilutions are made in duplicate.
A frozen cryo-vial of cells expressing the receptor of interest is thawed rapidly in a water-bath, transferred to pre-warmed assay buffer and spun at 240×g for 5 minutes. Cells are re-suspended in assay buffer at a batch-dependent optimized concentration (e.g. hGCGR cells at 2×10^5 cells/ml, hGLP-1R and hGIPR cells at 1×10^5 cells/ml).
To this, 5 μL cell suspension is added and the plates incubated at room temperature for 30 minutes.
cAMP levels are measured using a commercially available cAMP dynamic 2 HTRF kit (Cisbio, Cat #62AM4PEJ), following the two step protocol as per manufacturer's recommendations. In brief; anti-cAMP cryptate (donor fluorophore) and cAMP-d2 (acceptor fluorophore) are made up separately by diluting each 1/20 in conjugate & lysis buffer provided in the kit. 5 μL anti-cAMP cryptate is added to wells of the assay plate, and 5 μL cAMP-d2 is added to wells except non-specific binding (NSB) wells, to which conjugate and lysis buffer are added. […] EC50 values of the synthetic peptides determined in cAMP assays are then determined.
Data is transformed to % Delta F as described in the manufacturer's guidelines and analyzed by 4-parameter logistic fit to determine EC50 values. […] To compare the balance of activities at the GLP-1R and GCGR between different peptides and across different conditions, these can be correlated, where the EC50's are related to those of comparator peptides.

[1] = mean of n1 and n2, read-out: Mean pM GLP-1R
[2] = second determination (n2), read-out: Primary assay EC50 GLP-1R n2

EC50 [1]	EC50 [2]	SMILES
8 pM	8.1 pM	CCCCCCCCCCCCCCCC(=O)N[C@@H](CCC(=O)NCCCC[C@H](NC(=O)[C@H](CCC(=O)O)NC(=O)[C@H](CC(C)C)NC(=O)[C@](C)(Cc1ccccc1)NC(=O)[C@H](CO)NC(=O)[C@](C)(CO)NC(=O)[C@@H](NC(=O)[C@H](CC(=O)O)NC(=O)[C@H](CO)NC(=O)[C@@H](NC(=O)[C@](C)(Cc1ccccc1)NC(=O)[C@H](CO)NC(=O)CNC(=O)[C@H](CCC(=O)O)NC(=O)C(C)(C)NC(=O)[C@@H](N)Cc1c[nH]cn1)[C@@H](C)O)C(C)C)C(=O)N[C@@H](CCC(=O)O)C(=O)N[C@@H](C)C(=O)N[C@@H](C)C(=O)N[C@@](C)(CCCCN)C(=O)N[C@@H](CCC(=O)O)C(=O)N[C@@](C)(Cc1ccccc1)C(=O)N[C@H](C(=O)N[C@@H](C)C(=O)N[C@@](C)(Cc1ccccc1)C(=O)N[C@H](C(=O)N[C@H](C(=O)N[C@@](C)(CCCCN)C(=O)NCC(=O)NCC(N)=O)C(C)C)C(C)C)[C@@H](C)CC)C(=O)O [compound 84] (H-H[Aib]EGS[αMeF]TSDV[αMeS]S[αMeF]LEK([γGlu-Palmitoyl])EAA[αMeK]E[αMeF]IA[αMeF]VV[αMeK]GG-NH2; N-terminus assumed)
15 pM		CC[C@H](C)[C@H](NC(=O)[C@](C)(Cc1ccccc1)NC(=O)[C@H](CCC(=O)O)NC(=O)[C@](C)(CCCCN)NC(=O)[C@H](C)NC(=O)[C@H](C)NC(=O)[C@H](CCC(=O)O)NC(=O)CNC(=O)[C@H](CCC(=O)O)NC(=O)[C@H](CC(C)C)NC(=O)[C@](C)(Cc1ccccc1)NC(=O)[C@H](CO)NC(=O)[C@](C)(CO)NC(=O)[C@@H](NC(=O)[C@H](CC(=O)O)NC(=O)[C@H](CO)NC(=O)[C@@H](NC(=O)[C@](C)(Cc1ccccc1)NC(=O)[C@H](CO)NC(=O)CNC(=O)[C@H](CCC(=O)O)NC(=O)C(C)(C)NC(=O)[C@@H](N)Cc1c[nH]cn1)[C@@H](C)O)C(C)C)C(=O)N[C@@H](C)C(=O)N[C@@](C)(Cc1ccccc1)C(=O)N[C@H](C(=O)N[C@H](C(=O)N[C@@](C)(CCCCN)C(=O)N[C@@H](CCCCNC(=O)COCCOCCNC(=O)COCCOCCNC(=O)CC[C@H](NC(=O)CCCCCCCCCCCCCCCCC(=O)O)C(=O)O)C(=O)NCC(N)=O)C(C)C)C(C)C [compound 100] (H-H[Aib]EGS[αMeF]TSDV[αMeS]S[αMeF]LEGEAA[αMeK]E[αMeF]IA[αMeF]VV[αMeK]K([AEEA-AEEA-γGlu-C18 diacid])G-NH2; N-terminus assumed)
5 pM		CC[C@H](C)[C@H](NC(=O)[C@](C)(Cc1ccccc1)NC(=O)[C@H](CCC(=O)O)NC(=O)[C@](C)(CCCCN)NC(=O)[C@H](C)NC(=O)[C@H](C)NC(=O)[C@H](CCC(=O)O)NC(=O)CNC(=O)[C@H](CCC(=O)O)NC(=O)[C@H](CC(C)C)NC(=O)[C@](C)(Cc1ccccc1)NC(=O)[C@H](CO)NC(=O)[C@](C)(CO)NC(=O)[C@@H](NC(=O)[C@H](CC(=O)O)NC(=O)[C@H](CO)NC(=O)[C@@H](NC(=O)[C@](C)(Cc1ccccc1)NC(=O)[C@H](CO)NC(=O)CNC(=O)[C@H](CCC(=O)O)NC(=O)C(C)(C)NC(=O)[C@@H](N)Cc1c[nH]cn1)[C@@H](C)O)C(C)C)C(=O)N[C@@H](C)C(=O)N[C@@H](CCCCNC(=O)COCCOCCNC(=O)COCCOCCNC(=O)CC[C@H](NC(=O)CCCCCCCCCCCCCCCCC(=O)O)C(=O)O)C(=O)N[C@H](C(=O)N[C@H](C(=O)N[C@@](C)(CCCCN)C(=O)NCC(=O)NCC(N)=O)C(C)C)C(C)C [compound 104]
34 pM	34.6 pM	CC[C@H](C)[C@H](NC(=O)[C@](C)(Cc1ccccc1)NC(=O)[C@H](CCC(=O)O)NC(=O)[C@H](CCCCNC(=O)COCCOCCNC(=O)COCCOCCNC(=O)CC[C@H](NC(=O)CCCCCCCCCCCCCCC(=O)O)C(=O)O)NC(=O)[C@H](C)NC(=O)[C@H](C)NC(=O)[C@H](CCC(=O)O)NC(=O)CNC(=O)[C@H](CCC(=O)O)NC(=O)[C@H](CC(C)C)NC(=O)[C@](C)(Cc1ccccc1)NC(=O)[C@H](CO)NC(=O)[C@](C)(CO)NC(=O)[C@@H](NC(=O)[C@H](CC(=O)O)NC(=O)[C@H](CO)NC(=O)[C@@H](NC(=O)[C@](C)(Cc1ccccc1)NC(=O)[C@H](CO)NC(=O)CNC(=O)[C@H](CCC(=O)O)NC(=O)C(C)(C)NC(=O)[C@@H](N)Cc1c[nH]cn1)[C@@H](C)O)C(C)C)C(=O)N[C@@H](C)C(=O)N[C@@](C)(Cc1ccccc1)C(=O)N[C@H](C(=O)N[C@H](C(=O)N[C@@](C)(CCCCN)C(=O)NCC(=O)NCC(N)=O)C(C)C)C(C)C [compound 109]
62 pM		CC[C@H](C)[C@H](NC(=O)[C@](C)(Cc1ccccc1)NC(=O)[C@H](CCC(=O)O)NC(=O)[C@](C)(CCCCN)NC(=O)[C@H](CCCCNC(=O)COCCOCCNC(=O)COCCOCCNC(=O)CC[C@H](NC(=O)CCCCCCCCCCCCCCCCC(=O)O)C(=O)O)NC(=O)[C@H](C)NC(=O)[C@H](CCC(=O)O)NC(=O)CNC(=O)[C@H](CCC(=O)O)NC(=O)[C@H](CC(C)C)NC(=O)[C@](C)(Cc1ccccc1)NC(=O)[C@H](CO)NC(=O)[C@](C)(CO)NC(=O)[C@@H](NC(=O)[C@H](CC(=O)O)NC(=O)[C@H](CO)NC(=O)[C@@H](NC(=O)[C@](C)(Cc1ccccc1)NC(=O)[C@H](CO)NC(=O)CNC(=O)[C@H](CCC(=O)O)NC(=O)C(C)(C)NC(=O)[C@@H](N)Cc1c[nH]cn1)[C@@H](C)O)C(C)C)C(=O)N[C@@H](C)C(=O)N[C@@](C)(Cc1ccccc1)C(=O)N[C@H](C(=O)N[C@H](C(=O)N[C@@](C)(CCCCN)C(=O)NCC(=O)NCC(N)=O)C(C)C)C(C)C [compound 110] (H-H[Aib]EGS[αMeF]TSDV[αMeS]S[αMeF]LEGEAK([AEEA-AEEA-γGlu-C18 diacid])[αMeK]E[αMeF]IA[αMeF]VV[αMeK]GG-NH2; N-terminus assumed)
17 pM		CC[C@H](C)[C@H](NC(=O)[C@](C)(Cc1ccccc1)NC(=O)[C@H](CCC(=O)O)NC(=O)[C@](C)(CCCCN)NC(=O)[C@H](C)NC(=O)[C@H](CCCCNC(=O)COCCOCCNC(=O)COCCOCCNC(=O)CC[C@H](NC(=O)CCCCCCCCCCCCCCCCC(=O)O)C(=O)O)NC(=O)[C@H](CCC(=O)O)NC(=O)CNC(=O)[C@H](CCC(=O)O)NC(=O)[C@H](CC(C)C)NC(=O)[C@](C)(Cc1ccccc1)NC(=O)[C@H](CO)NC(=O)[C@](C)(CO)NC(=O)[C@@H](NC(=O)[C@H](CC(=O)O)NC(=O)[C@H](CO)NC(=O)[C@@H](NC(=O)[C@](C)(Cc1ccccc1)NC(=O)[C@H](CO)NC(=O)CNC(=O)[C@H](CCC(=O)O)NC(=O)C(C)(C)NC(=O)[C@@H](N)Cc1c[nH]cn1)[C@@H](C)O)C(C)C)C(=O)N[C@@H](C)C(=O)N[C@@](C)(Cc1ccccc1)C(=O)N[C@H](C(=O)N[C@H](C(=O)N[C@@](C)(CCCCN)C(=O)NCC(=O)NCC(N)=O)C(C)C)C(C)C [compound 111] (H-H[Aib]EGS[αMeF]TSDV[αMeS]S[αMeF]LEGEK([AEEA-AEEA-γGlu-C18 diacid])A[αMeK]E[αMeF]IA[αMeF]VV[αMeK]GG-NH2; N-terminus assumed)
